Source: patent US12568972B2, “Pyridazinol compounds and derivatives, preparation methods, herbicidal compositions and applications thereof” (Qingdao Kingagroot Chemical Compound Co., Ltd., priority 2018, dated 2026)

Tests used:
Test in all cases: Post-emergence test, weed control effect
Assay type in all cases: in vivo
Details in all cases: Dose 3000 g/ha, after 3 weeks
Chenopodiaceae = system: Chenopodiaceae
Outline: (§1)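 Score 0-10 (10 = completely dead, 1 = below 20%, 0 = no effect) from fresh-weight growth inhibition, read 3 weeks after a post-emergence spray. Greenhouse pot plants at 2-3 leaves; spray solution acetone/Tween-80/water with 80% vegetable oil methyl ester synergist at 1500 g/ha.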

Veronica polita = system: Veronica polita
Outline: as §1

Amaranthus retroflexus = system: Amaranthus retroflexus
Outline: as §1

Rorippa indica = system: Rorippa indica
Outline: as §1

Oc1cc(C(F)(F)F)nnc1-c1c(Cl)ccnc1Cl [Compound 993]
10: weed control effect (activity level), Chenopodiaceae (Chenopodiaceae) | weed control effect (activity level), Veronica polita (Veronica polita) | weed control effect (activity level), Amaranthus retroflexus (Amaranthus retroflexus) | weed control effect (activity level), Rorippa indica (Rorippa indica)

Oc1cc(C(F)(F)F)nnc1-c1cnc(Cl)c(Cl)c1 [Compound 994]
10: weed control effect (activity level), Chenopodiaceae (Chenopodiaceae) | weed control effect (activity level), Veronica polita (Veronica polita) | weed control effect (activity level), Amaranthus retroflexus (Amaranthus retroflexus) | weed control effect (activity level), Rorippa indica (Rorippa indica)

Oc1cc(C(F)(F)F)nnc1-c1cnc(Cl)cc1Cl [Compound 995]
10: weed control effect (activity level), Chenopodiaceae (Chenopodiaceae) | weed control effect (activity level), Veronica polita (Veronica polita) | weed control effect (activity level), Amaranthus retroflexus (Amaranthus retroflexus) | weed control effect (activity level), Rorippa indica (Rorippa indica)

Oc1cc(C(F)(F)F)nnc1-c1cncc(Cl)c1Cl [Compound 996]
10: weed control effect (activity level), Chenopodiaceae (Chenopodiaceae) | weed control effect (activity level), Veronica polita (Veronica polita) | weed control effect (activity level), Amaranthus retroflexus (Amaranthus retroflexus) | weed control effect (activity level), Rorippa indica (Rorippa indica)

Oc1cc(C(F)(F)F)nnc1-c1ccc(Cl)nc1F [Compound 997]
10: weed control effect (activity level), Chenopodiaceae (Chenopodiaceae) | weed control effect (activity level), Veronica polita (Veronica polita) | weed control effect (activity level), Amaranthus retroflexus (Amaranthus retroflexus) | weed control effect (activity level), Rorippa indica (Rorippa indica)

Oc1cc(C(F)(F)F)nnc1-c1cc(Cl)cnc1F [Compound 998]
10: weed control effect (activity level), Chenopodiaceae (Chenopodiaceae) | weed control effect (activity level), Veronica polita (Veronica polita) | weed control effect (activity level), Amaranthus retroflexus (Amaranthus retroflexus) | weed control effect (activity level), Rorippa indica (Rorippa indica)

Oc1cc(C(F)(F)F)nnc1-c1c(Cl)ccnc1F [Compound 999]
10: weed control effect (activity level), Chenopodiaceae (Chenopodiaceae) | weed control effect (activity level), Veronica polita (Veronica polita) | weed control effect (activity level), Amaranthus retroflexus (Amaranthus retroflexus) | weed control effect (activity level), Rorippa indica (Rorippa indica)

Oc1cc(C(F)(F)F)nnc1-c1cnc(F)cc1Cl [Compound 1001]
10: weed control effect (activity level), Chenopodiaceae (Chenopodiaceae) | weed control effect (activity level), Veronica polita (Veronica polita) | weed control effect (activity level), Amaranthus retroflexus (Amaranthus retroflexus) | weed control effect (activity level), Rorippa indica (Rorippa indica)

Oc1cc(C(F)(F)F)nnc1-c1cncc(F)c1Cl [Compound 1002]
10: weed control effect (activity level), Chenopodiaceae (Chenopodiaceae) | weed control effect (activity level), Veronica polita (Veronica polita) | weed control effect (activity level), Amaranthus retroflexus (Amaranthus retroflexus) | weed control effect (activity level), Rorippa indica (Rorippa indica)

Oc1cc(C(F)(F)F)nnc1-c1ccc(F)nc1Cl [Compound 1003]
10: weed control effect (activity level), Chenopodiaceae (Chenopodiaceae) | weed control effect (activity level), Veronica polita (Veronica polita) | weed control effect (activity level), Amaranthus retroflexus (Amaranthus retroflexus) | weed control effect (activity level), Rorippa indica (Rorippa indica)

Oc1cc(C(F)(F)F)nnc1-c1cc(F)cnc1Cl [Compound 1004]
10: weed control effect (activity level), Chenopodiaceae (Chenopodiaceae) | weed control effect (activity level), Veronica polita (Veronica polita) | weed control effect (activity level), Amaranthus retroflexus (Amaranthus retroflexus) | weed control effect (activity level), Rorippa indica (Rorippa indica)

Oc1cc(C(F)(F)F)nnc1-c1c(F)ccnc1Cl [Compound 1005]
10: weed control effect (activity level), Chenopodiaceae (Chenopodiaceae) | weed control effect (activity level), Veronica polita (Veronica polita) | weed control effect (activity level), Amaranthus retroflexus (Amaranthus retroflexus) | weed control effect (activity level), Rorippa indica (Rorippa indica)

Oc1cc(C(F)(F)F)nnc1-c1cnc(Cl)c(F)c1 [Compound 1006]
10: weed control effect (activity level), Chenopodiaceae (Chenopodiaceae) | weed control effect (activity level), Veronica polita (Veronica polita) | weed control effect (activity level), Amaranthus retroflexus (Amaranthus retroflexus) | weed control effect (activity level), Rorippa indica (Rorippa indica)

Oc1cc(C(F)(F)F)nnc1-c1cnc(Cl)cc1F [Compound 1007]
10: weed control effect (activity level), Chenopodiaceae (Chenopodiaceae) | weed control effect (activity level), Veronica polita (Veronica polita) | weed control effect (activity level), Amaranthus retroflexus (Amaranthus retroflexus) | weed control effect (activity level), Rorippa indica (Rorippa indica)

Oc1cc(C(F)(F)F)nnc1-c1cncc(Cl)c1F [Compound 1008]
10: weed control effect (activity level), Chenopodiaceae (Chenopodiaceae) | weed control effect (activity level), Veronica polita (Veronica polita) | weed control effect (activity level), Amaranthus retroflexus (Amaranthus retroflexus) | weed control effect (activity level), Rorippa indica (Rorippa indica)

Cc1cc(Cl)ncc1-c1nnc(C(F)(F)F)cc1O [Compound 1018]
10: weed control effect (activity level), Chenopodiaceae (Chenopodiaceae) | weed control effect (activity level), Veronica polita (Veronica polita) | weed control effect (activity level), Amaranthus retroflexus (Amaranthus retroflexus) | weed control effect (activity level), Rorippa indica (Rorippa indica)

Oc1cc(CF)nnc1-c1cccnc1F [Compound 1076]
10: weed control effect (activity level), Chenopodiaceae (Chenopodiaceae) | weed control effect (activity level), Veronica polita (Veronica polita) | weed control effect (activity level), Amaranthus retroflexus (Amaranthus retroflexus) | weed control effect (activity level), Rorippa indica (Rorippa indica)

Oc1cc(C(F)(F)F)nnc1-c1ccc2c(c1)OC(F)(F)O2 [Compound 1286]
10: weed control effect (activity level), Chenopodiaceae (Chenopodiaceae) | weed control effect (activity level), Veronica polita (Veronica polita) | weed control effect (activity level), Amaranthus retroflexus (Amaranthus retroflexus) | weed control effect (activity level), Rorippa indica (Rorippa indica)

CC(C)=Cc1nnc(C(F)(F)F)cc1O [Compound 1523]
10: weed control effect (activity level), Chenopodiaceae (Chenopodiaceae) | weed control effect (activity level), Veronica polita (Veronica polita) | weed control effect (activity level), Amaranthus retroflexus (Amaranthus retroflexus) | weed control effect (activity level), Rorippa indica (Rorippa indica)
